From patent US20220228172A1 (priority 2019, published 2022)
Entries after “also recorded” stand apart in the source; their conditions may differ.

Legend:
Type in all cases: cell-based, vesicular stomatitis virus
VSV-L-Prot [1] = tested on: VSV-L-Prot
VSV-GP-IL12-Prot-Off = tested on: VSV-GP-IL12-Prot-Off
VSV-GP-Luc-IL12-Prot-Off = tested on: VSV-GP-Luc-IL12-Prot-Off
[2] = tested on: VSV-GFP-Prot-L (VSV-Prot-Off)
VSV-P-prot [3] = tested on: VSV-P-prot
VSV-GP-IL12 = tested on: VSV-GP-IL12
VSV-GP-TM-IL12-Prot-Off = tested on: VSV-GP-TM-IL12-Prot-Off
VSV-P-prot [4] = tested on: VSV-P-prot; remark: listed apart in the source
VSV-ΔP-RFP = tested on: VSV-ΔP-RFP
VSV-L-Prot [5] = tested on: VSV-L-Prot; remark: listed apart in the source
[6] = tested on: standard recombinant VSV without P-prot control mechanism

Compound: CC(C)(C)NC(=O)[C@@H]1C[C@@H]2CCCC[C@@H]2CN1C[C@@H](O)[C@H](Cc1ccccc1)NC(=O)[C@H](CC(N)=O)NC(=O)c1ccc2ccccc2n1 [saquinavir]
- VSV-L-Prot replication in presence of protease inhibitor (VSV-L-Prot [1]): replicates to high titers in its presence
- virus titer of VSV-GP-IL12-Prot-Off with and without linker (VSV-GP-IL12-Prot-Off): dependent on the presence and concentration; also recorded: inversely correlated
- IL12 expression in supernatant (ELISA) (VSV-GP-Luc-IL12-Prot-Off): inversely correlated
- inhibition of VSV-GFP-Prot-L replication [2]: even stronger inhibition of virus replication than amprenavir; also recorded: strongest suppression of viral replication
- viral gene expression (GFP signal) of VSV-P-prot (VSV-P-prot [3]): facilitated
- viral replication (plaque formation) of VSV-P-prot (VSV-P-prot [3]): facilitated

Compound: CC(C)(C)NC(=O)[C@@H]1CN(Cc2cccnc2)CCN1C[C@@H](O)C[C@@H](Cc1ccccc1)C(=O)N[C@H]1c2ccccc2C[C@H]1O [indinavir]
- VSV-L-Prot replication in presence of protease inhibitor (VSV-L-Prot [1]): replicates to high titers in its presence
- viral gene expression (GFP signal) of VSV-P-prot (VSV-P-prot [3]): facilitated
- viral replication (plaque formation) of VSV-P-prot (VSV-P-prot [3]): facilitated

Compound: Cc1cccc(C)c1OCC(=O)N[C@@H](Cc1ccccc1)[C@@H](O)C[C@H](Cc1ccccc1)NC(=O)[C@H](C(C)C)N1CCCNC1=O [lopinavir]
- regulation of VSV-P-prot (data not shown) (VSV-P-prot [3]; 10 μM): shown to regulate VSV-P-prot

Compound: COC(=O)N[C@H](C(=O)N[C@@H](Cc1ccccc1)[C@@H](O)CN(Cc1ccc(-c2ccccn2)cc1)NC(=O)[C@@H](NC(=O)OC)C(C)(C)C)C(C)(C)C [atazanavir]
- virus titer of VSV-GP-IL12 (VSV-GP-IL12): uneffected
- virus titer of VSV-GP-Luc-IL12-Prot-Off with and without linker (VSV-GP-Luc-IL12-Prot-Off): inversely correlated
- virus titer of VSV-GP-TM-IL12-Prot-Off (-w/ol, -fl) (VSV-GP-TM-IL12-Prot-Off): inversely correlated

Compound: CC(C)CN(C[C@@H](O)[C@H](Cc1ccccc1)NC(=O)O[C@H]1CCOC1)S(=O)(=O)c1ccc(N)cc1 [amprenavir]
- VSV-P-prot activity at doses above the plateau (VSV-P-prot [4]): deteriorated at higher doses
- amprenavir dose at which VSV-P-prot activity started (VSV-P-prot [4]): 100 nM
- RFP signal in VSV-ΔP-RFP infected cells (VSV-ΔP-RFP): only detectable in the presence of P196PR2 and a specific HIV protease inhibitor
- amprenavir dose at which VSV-L-prot activity started (VSV-L-Prot [5]): 100 nM
- amprenavir dose of maximum VSV-L-prot activity (VSV-L-Prot [5]): 30 µM
- VSV-L-Prot replication in presence of protease inhibitor (VSV-L-Prot [1]): replicates to high titers in its presence
- effect of amprenavir on viral replication of standard recombinant VSV [6]: not affected
- APV dose at which VSV-Prot-OFF activity started to decrease [2]: 30 nM
- amprenavir concentration at which VSV-GFP-Prot-L activity started to decline [2]: 1 µM
- amprenavir concentrations at which VSV-GFP-Prot-L activity was high [2]: 0 to 300 nM
- effect on VSV-GFP-Prot-L activity (GFP expression, plaque assays) [2]: stop of virus activity
- viral gene expression (GFP signal) of VSV-P-prot (VSV-P-prot [3]): strong GFP signal within 24 hours in the presence but not in the absence
- viral replication (plaque formation) of VSV-P-prot (VSV-P-prot [3]): protease inhibitor-dependent
